Test results: paper PMC8042122 (Scientific Reports, 2021)

System: F. graminearum CBS185.32 strain
Format: cell-based, Fusarium graminearum
Conditions: for Impact of methyl caps on the activity of TC3 (ability to inhibit TCTB production): 50 µM

Substance | Impact of methyl caps on the activity of TC3 (ability to inhibit TCTB production) | Inhibitory activity on TCTB production
CGNFLKRTC(CH3)ICVKK (disulfide) [TC3-CH3-2Ox, TC3-CH3-2 oxidized, cyclized through the non-capped Cys] | most negative impact | –
CGNFLKRTCIC(CH3)VKK (disulfide) [TC3-CH3-3Ox, TC3-CH3-3 oxidized, cyclized through the non-capped Cys] | most negative impact | –
CGNFLTRTCICVKK [TC3-K6T, TC3 with Lys6 substituted by Thr] | – | lowest inhibitory activity
